± gives the expanded uncertainty stated by the source.
Experiment: excess molar enthalpy (molar enthalpy of mixing); xn = mol fraction of the nth substance listed
Details: 101 kPa, Liquid, Flow calorimetry

CCCCCO [pentan-1-ol] + Cc1ccccc1
excess molar enthalpy [kcal/mol]
Details | 298.15 K | 313.15 K
x1 = 0.0511 | 0.129 ± 0.00287 | 0.143 ± 0.00311
x1 = 0.1004 | 0.182 ± 0.00382 | 0.211 ± 0.00454
x1 = 0.1497 | 0.211 ± 0.00454 | –
x1 = 0.1498 | – | 0.252 ± 0.0055
x1 = 0.2012 | 0.232 ± 0.00502 | –
x1 = 0.2013 | – | 0.279 ± 0.00598
x1 = 0.2507 | 0.244 ± 0.00526 | –
x1 = 0.2508 | – | 0.294 ± 0.00621
x1 = 0.3003 | 0.251 ± 0.00526 | 0.299 ± 0.00645
x1 = 0.35 | 0.254 ± 0.0055 | 0.299 ± 0.00645
x1 = 0.3999 | – | 0.3 ± 0.00645
x1 = 0.4018 | 0.249 ± 0.00526 | –
x1 = 0.4516 | 0.242 ± 0.00526 | –
x1 = 0.4518 | – | 0.287 ± 0.00621
x1 = 0.5016 | 0.229 ± 0.00502 | 0.277 ± 0.00598
x1 = 0.5517 | 0.214 ± 0.00454 | 0.26 ± 0.0055
x1 = 0.6018 | 0.195 ± 0.0043 | –
x1 = 0.6019 | – | 0.24 ± 0.00502
x1 = 0.65 | 0.174 ± 0.00382 | –
x1 = 0.6501 | – | 0.216 ± 0.00454
x1 = 0.7003 | 0.151 ± 0.00335 | –
x1 = 0.7004 | – | 0.19 ± 0.00406
x1 = 0.7507 | 0.126 ± 0.00263 | –
x1 = 0.7508 | – | 0.159 ± 0.00335
x1 = 0.8012 | 0.0992 ± 0.00217 | –
x1 = 0.8013 | – | 0.129 ± 0.00287
x1 = 0.8497 | 0.0747 ± 0.00165 | –
x1 = 0.8498 | – | 0.0978 ± 0.00215
x1 = 0.9004 | 0.0485 ± 0.0011 | –
x1 = 0.9005 | – | 0.0638 ± 0.00143
x1 = 0.9491 | 0.0243 ± 0.000598 | –
x1 = 0.9492 | – | 0.0315 ± 0.000765
x1 = 1 | 0 ± 0.000239 | 0 ± 0.000239

CCCCCO [pentan-1-ol] + C1CCCCC1
excess molar enthalpy [kcal/mol]
Details | 298.15 K | 313.15 K
x1 = 0.05 | 0.0797 ± 0.00177 | 0.107 ± 0.00237
x1 = 0.1 | – | 0.139 ± 0.00311
x1 = 0.1001 | 0.105 ± 0.00229 | –
x1 = 0.1501 | 0.124 ± 0.00263 | 0.161 ± 0.00359
x1 = 0.2021 | – | 0.177 ± 0.00382
x1 = 0.2022 | 0.139 ± 0.00311 | –
x1 = 0.2522 | 0.149 ± 0.00311 | 0.188 ± 0.00406
x1 = 0.3022 | 0.155 ± 0.00335 | 0.193 ± 0.00406
x1 = 0.3521 | – | 0.196 ± 0.0043
x1 = 0.3523 | 0.158 ± 0.00335 | –
x1 = 0.4022 | – | 0.194 ± 0.00406
x1 = 0.4023 | 0.157 ± 0.00335 | –
x1 = 0.4522 | – | 0.187 ± 0.00406
x1 = 0.4523 | 0.153 ± 0.00335 | –
x1 = 0.5022 | 0.146 ± 0.00311 | 0.178 ± 0.00382
x1 = 0.5522 | 0.137 ± 0.00287 | 0.17 ± 0.00359
x1 = 0.6022 | 0.126 ± 0.00263 | 0.152 ± 0.00335
x1 = 0.6519 | – | 0.139 ± 0.00311
x1 = 0.6522 | 0.113 ± 0.00239 | –
x1 = 0.7019 | – | 0.118 ± 0.00263
x1 = 0.7022 | 0.0982 ± 0.00215 | –
x1 = 0.7521 | – | 0.0985 ± 0.00215
x1 = 0.7522 | 0.083 ± 0.00182 | –
x1 = 0.8021 | 0.065 ± 0.00143 | 0.0799 ± 0.00177
x1 = 0.8501 | 0.0493 ± 0.00112 | 0.0598 ± 0.00134
x1 = 0.9 | 0.033 ± 0.000765 | 0.0381 ± 0.000884
x1 = 0.95 | 0.0162 ± 0.00043 | 0.0191 ± 0.000502
x1 = 1 | 0 ± 0.000239 | 0 ± 0.000239

Cc1ccccc1 [toluene] + CCCCCO
x2 = 0
Details | excess molar enthalpy [kcal/mol]
298.15 K | 0 ± 0.000239
313.15 K | 0 ± 0.000239

C1CCCCC1 [cyclohexane] + CCCCCO
x2 = 0
Details | excess molar enthalpy [kcal/mol]
298.15 K | 0 ± 0.000239
313.15 K | 0 ± 0.000239
